{"source": "patent US8834848B2", "about": "“Flow and volume regulated inhalation for treatment of severe oral corticosteroid-dependent asthma” (Activaero GmbH Research & Development, priority 2009, dated 2014)", "key": {"[1]": {"test": "Clinical trial: budesonide serum concentration analysis", "type": "in vivo, human", "conditions": "baseline to week 18; roughly 12 hours dosing interval", "method": "For budesonide serum concentration analysis, blood was drawn in all four investigated groups either before inhalation or 30-60 minutes following inhalation at baseline (post-inhalation) and at week 18 (pre- and post-inhalation). Results are seen in FIG. 10."}, "[2]": {"conditions": "human, in vivo", "method": "Thus the flow-controlled, slow inhalation at about 200 ml/sec enables maximum drug deposition in the target area of small airways. As further seen in FIG. 12, such inhalation method leads to an alveolar drug deposition of 40 to 50%. In contrast, alveolar deposition is below 10% when using a high inspiratory flow rate of 1000 ml/sec and a small inhalation volume of 350 ml, and it is 20-30% when using an inspiratory flow rate of 1000 ml/sec and an inhalation volume of 1800 ml. It is thus preferred to combine the controlled, slow flow rate of e.g. 200 ml/sec with higher inhalation volumes. As mentioned above, said inhalation volumes depend on the individual patient's lung function and the severity grade of the pulmonary disease, but in cooperation between physician and patient, a volume as high as is well tolerable for the patient can be chosen (see also Table 7)."}, "[3]": {"tested_on": "oral steroid-dependent asthma subjects", "conditions": "nominal 4-8 mg daily, conventional nebulizer; cited from earlier work"}, "[4]": {"conditions": "after IV or inhalation administration; cited from earlier work"}, "healthy volunteers": {"tested_on": "healthy volunteers", "conditions": "inhalation; cited from earlier work"}, "[5]": {"tested_on": "patients with chronic oral dependent asthma", "conditions": "cited from earlier work"}, "[6]": {"tested_on": "patients with severe chronic asthma", "conditions": "500 or 1000 μg twice daily; cited from earlier work"}, "asthmatic children": {"tested_on": "asthmatic children", "conditions": "50 or 100 μg twice a day via dry powder inhaler; cited from earlier work"}, "chronic asthma": {"tested_on": "chronic asthma", "conditions": "at half the daily dose of beclomethasone or budenoside; cited from earlier work"}, "asthma patients": {"tested_on": "asthma patients", "conditions": "cited from earlier work"}, "[7]": {"tested_on": "asthma in adults and children", "conditions": "2000 μg once a day, AKITA protocol; cited from earlier work"}, "[8]": {"tested_on": "children with acute exacerbated asthma", "conditions": "nebulized; cited from earlier work"}}, "data": [{"smiles": "CCCC1O[C@@H]2C[C@H]3[C@@H]4CCC5=CC(=O)C=C[C@]5(C)[C@H]4[C@@H](O)C[C@]3(C)[C@]2(C(=O)CO)O1", "note": "(stereo partly drawn) [budesonide]", "values": [{"measurement": "accumulation of budesonide in serum", "setting": "[1]", "value": "did not accumulate in serum"}, {"measurement": "alveolar drug deposition", "setting": "[2]", "value": "40-50%"}, {"measurement": "subjects with side effects like oral thrush or disturbing sore throat", "setting": "[3]", "value": 11, "unit": "%"}, {"measurement": "elimination half-life", "setting": "[4]", "value": "2.2 to 4.5", "unit": "h"}]}, {"smiles": "CCC(=O)O[C@]1(C(=O)SCF)[C@H](C)C[C@H]2[C@@H]3C[C@H](F)C4=CC(=O)C=C[C@]4(C)[C@@]3(F)[C@@H](O)C[C@@]21C", "note": "[fluticasone propionate]", "values": [{"measurement": "relative lung dose, large volume (750 ml) spacer versus nebulizer", "setting": "healthy volunteers", "value": "sevenfold"}, {"measurement": "patients who discontinued the treatment", "setting": "[5]; 4000 μg/day nebulized", "value": 37, "unit": "%"}, {"measurement": "reduction in the need for orally administered prednisone, 4000 μg versus 1000 μg per day", "setting": "[5]; nebulized, bid", "value": "significantly greater"}, {"measurement": "adverse effects", "setting": "[6]", "value": "topical adverse effects associated with inhaled corticosteroids were observed"}, {"measurement": "oral corticosteroid-sparing effect", "setting": "[6]", "value": "eliminated a need for oral prednisone"}, {"measurement": "patients reporting adverse effects", "setting": "asthmatic children", "value": 51, "unit": "%"}, {"measurement": "adverse side effects", "setting": "chronic asthma", "value": "higher risk of pharyngitis and other adverse side effects"}, {"measurement": "effect on FEV1", "setting": "chronic asthma", "value": "improvement of forced expiratory volume in the first second (FEV1)"}, {"measurement": "reduction of need for oral prednisolone", "setting": "asthma patients; 2000 μg per day versus 1500 or 1000 μg/day", "value": "more likely to reduce a need for oral prednisolone"}, {"measurement": "hoarseness and oral candidiasis", "setting": "asthma patients; higher doses", "value": "significantly greater"}, {"measurement": "FEV1 improvement", "setting": "[7]", "value": 17.1, "unit": "%"}, {"measurement": "amount of administered dose that reached the central portion of the lungs (estimated)", "setting": "[7]", "value": "500 to 700", "unit": "µg"}, {"measurement": "reduction in oral steroid use", "setting": "[7]", "value": 33.2, "unit": "%"}, {"measurement": "efficacy compared to oral prednisolone", "setting": "[8]", "value": "at least as effective as oral prednisolone"}]}]}
